According to publication PMC10945555, “Improving Activity of New Arylurea Agents against Multidrug-Resistant and Biofilm-Producing Staphylococcus epidermidis” (ACS Medicinal Chemistry Letters, 2024):
Where two headings read alike, the source gives them in different places.

Tested on: clinical Staphylococcus epidermidis strains
Assay: Minimal bactericidal concentration (MBC), MBC/MIC
Assay type: cell-based
Settings: for MBC: Staphylococcus epidermidis
Description: 2.5 Evaluation of bacteriostatic/bactericidal properties […]
determining MBC (Minimal Bactericidal Concentration) values. The study was conducted in accordance with the guidelines of the Clinical and Laboratory Standards Institute (CLSI).13 The MBC value was assumed to be the concentration of the compound inhibiting the growth of strains in 99.9%. Then, the value of the MBC/MIC ratio was calculated to assess its bactericidal or bacteriostatic activity. […]

O=C(Nc1cccc(Cl)c1)NC1CCN(CCC(Oc2ccc(C(F)(F)F)cc2)c2cccs2)CC1 (stereo not drawn) [Compound 25]
12.5 µg/mL: MBC (clinical strain 3 (Table S5), read-out: MBC) | MBC (clinical strain 8 (Table S5), read-out: MBC) | MBC (clinical strain 19 (Table S5), read-out: MBC) | MBC (clinical strain 22 (Table S5), read-out: MBC) | MBC (clinical strain 25 (Table S5), read-out: MBC) | MBC (clinical strain 28 (Table S5), read-out: MBC) | MBC (clinical strain 30 (Table S5), read-out: MBC) | MBC (clinical strain 39 (Table S5), read-out: MBC) | MBC (clinical strain 40 (Table S5), read-out: MBC) | MBC (clinical strain 42 (Table S5), read-out: MBC) | MBC (clinical strain 46 (Table S5), read-out: MBC) | MBC (clinical strain 54 (Table S5), read-out: MBC) | MBC (clinical strain 58 (Table S5), read-out: MBC)
25 µg/mL: MBC (clinical strain 1 (Table S5), read-out: MBC) | MBC (clinical strain 2 (Table S5), read-out: MBC) | MBC (clinical strain 4 (Table S5), read-out: MBC) | MBC (clinical strain 6 (Table S5), read-out: MBC) | MBC (clinical strain 7 (Table S5), read-out: MBC) | MBC (clinical strain 11 (Table S5), read-out: MBC) | MBC (clinical strain 12 (Table S5), read-out: MBC) | MBC (clinical strain 13 (Table S5), read-out: MBC) | MBC (clinical strain 14 (Table S5), read-out: MBC) | MBC (clinical strain 16 (Table S5), read-out: MBC) | MBC (clinical strain 20 (Table S5), read-out: MBC) | MBC (clinical strain 21 (Table S5), read-out: MBC) | MBC (clinical strain 23 (Table S5), read-out: MBC) | MBC (clinical strain 24 (Table S5), read-out: MBC) | MBC (clinical strain 31 (Table S5), read-out: MBC) | MBC (clinical strain 32 (Table S5), read-out: MBC) | MBC (clinical strain 33 (Table S5), read-out: MBC) | MBC (clinical strain 34 (Table S5), read-out: MBC) | MBC (clinical strain 35 (Table S5), read-out: MBC) | MBC (clinical strain 36 (Table S5), read-out: MBC) | MBC (clinical strain 37 (Table S5), read-out: MBC) | MBC (clinical strain 38 (Table S5), read-out: MBC) | MBC (clinical strain 41 (Table S5), read-out: MBC) | MBC (clinical strain 43 (Table S5), read-out: MBC) | MBC (clinical strain 44 (Table S5), read-out: MBC) | MBC (clinical strain 45 (Table S5), read-out: MBC) | MBC (clinical strain 47 (Table S5), read-out: MBC) | MBC (clinical strain 48 (Table S5), read-out: MBC) | MBC (clinical strain 56 (Table S5), read-out: MBC) | MBC (clinical strain 61 (Table S5), read-out: MBC) | MBC (clinical strain 62 (Table S5), read-out: MBC) | MBC (clinical strain 63 (Table S5), read-out: MBC) | MBC (clinical strain 66 (Table S5), read-out: MBC) | MBC (clinical strain 69 (Table S5), read-out: MBC) | MBC (clinical strain 71 (Table S5), read-out: MBC) | MBC (clinical strain 76 (Table S5), read-out: MBC) | MBC (clinical strain 78 (Table S5), read-out: MBC)
3.12 µg/mL: MBC (clinical strain 81 (Table S5), read-out: MBC)
1.6 µg/mL: MBC (clinical strain 17 (Table S5), read-out: MBC) | MBC (clinical strain 49 (Table S5), read-out: MBC)
50 µg/mL: MBC (clinical strain 5 (Table S5), read-out: MBC) | MBC (clinical strain 9 (Table S5), read-out: MBC) | MBC (clinical strain 10 (Table S5), read-out: MBC) | MBC (clinical strain 15 (Table S5), read-out: MBC) | MBC (clinical strain 18 (Table S5), read-out: MBC) | MBC (clinical strain 26 (Table S5), read-out: MBC) | MBC (clinical strain 27 (Table S5), read-out: MBC) | MBC (clinical strain 50 (Table S5), read-out: MBC) | MBC (clinical strain 51 (Table S5), read-out: MBC) | MBC (clinical strain 52 (Table S5), read-out: MBC) | MBC (clinical strain 53 (Table S5), read-out: MBC) | MBC (clinical strain 55 (Table S5), read-out: MBC) | MBC (clinical strain 57 (Table S5), read-out: MBC) | MBC (clinical strain 59 (Table S5), read-out: MBC) | MBC (clinical strain 60 (Table S5), read-out: MBC) | MBC (clinical strain 64 (Table S5), read-out: MBC) | MBC (clinical strain 65 (Table S5), read-out: MBC) | MBC (clinical strain 67 (Table S5), read-out: MBC) | MBC (clinical strain 68 (Table S5), read-out: MBC) | MBC (clinical strain 70 (Table S5), read-out: MBC) | MBC (clinical strain 72 (Table S5), read-out: MBC) | MBC (clinical strain 74 (Table S5), read-out: MBC) | MBC (clinical strain 75 (Table S5), read-out: MBC) | MBC (clinical strain 77 (Table S5), read-out: MBC) | MBC (clinical strain 80 (Table S5), read-out: MBC)
6.25 µg/mL: MBC (clinical strain 29 (Table S5), read-out: MBC) | MBC (clinical strain 73 (Table S5), read-out: MBC) | MBC (clinical strain 79 (Table S5), read-out: MBC)
29.2 µg/mL: MBC (81 clinical strains (Table S5), read-out: Average of MBC) | MBC (read-out: Mean MBC)
16: MBC/MIC ratio (clinical S. epidermidis strains) | MBC/MIC (clinical strain 1 (Table S5)) | MBC/MIC (clinical strain 2 (Table S5)) | MBC/MIC (clinical strain 3 (Table S5)) | MBC/MIC (clinical strain 4 (Table S5)) | MBC/MIC (clinical strain 5 (Table S5)) | MBC/MIC (clinical strain 6 (Table S5)) | MBC/MIC (clinical strain 7 (Table S5)) | MBC/MIC (clinical strain 8 (Table S5)) | MBC/MIC (clinical strain 9 (Table S5)) | MBC/MIC (clinical strain 10 (Table S5)) | MBC/MIC (clinical strain 11 (Table S5)) | MBC/MIC (clinical strain 12 (Table S5)) | MBC/MIC (clinical strain 13 (Table S5)) | MBC/MIC (clinical strain 14 (Table S5)) | MBC/MIC (clinical strain 15 (Table S5)) | MBC/MIC (clinical strain 16 (Table S5)) | MBC/MIC (clinical strain 17 (Table S5)) | MBC/MIC (clinical strain 18 (Table S5)) | MBC/MIC (clinical strain 19 (Table S5)) | MBC/MIC (clinical strain 20 (Table S5)) | MBC/MIC (clinical strain 21 (Table S5)) | MBC/MIC (clinical strain 22 (Table S5)) | MBC/MIC (clinical strain 23 (Table S5)) | MBC/MIC (clinical strain 24 (Table S5)) | MBC/MIC (clinical strain 25 (Table S5)) | MBC/MIC (clinical strain 26 (Table S5)) | MBC/MIC (clinical strain 27 (Table S5)) | MBC/MIC (clinical strain 28 (Table S5)) | MBC/MIC (clinical strain 29 (Table S5)) | MBC/MIC (clinical strain 30 (Table S5)) | MBC/MIC (clinical strain 31 (Table S5)) | MBC/MIC (clinical strain 32 (Table S5)) | MBC/MIC (clinical strain 33 (Table S5)) | MBC/MIC (clinical strain 34 (Table S5)) | MBC/MIC (clinical strain 35 (Table S5)) | MBC/MIC (clinical strain 36 (Table S5)) | MBC/MIC (clinical strain 37 (Table S5)) | MBC/MIC (clinical strain 38 (Table S5)) | MBC/MIC (clinical strain 39 (Table S5)) | MBC/MIC (clinical strain 40 (Table S5)) | MBC/MIC (clinical strain 41 (Table S5)) | MBC/MIC (clinical strain 42 (Table S5)) | MBC/MIC (clinical strain 43 (Table S5)) | MBC/MIC (clinical strain 44 (Table S5)) | MBC/MIC (clinical strain 45 (Table S5)) | MBC/MIC (clinical strain 46 (Table S5)) | MBC/MIC (clinical strain 47 (Table S5)) | MBC/MIC (clinical strain 48 (Table S5)) | MBC/MIC (clinical strain 49 (Table S5)) | MBC/MIC (clinical strain 50 (Table S5)) | MBC/MIC (clinical strain 51 (Table S5)) | MBC/MIC (clinical strain 52 (Table S5)) | MBC/MIC (clinical strain 53 (Table S5)) | MBC/MIC (clinical strain 54 (Table S5)) | MBC/MIC (clinical strain 55 (Table S5)) | MBC/MIC (clinical strain 56 (Table S5)) | MBC/MIC (clinical strain 57 (Table S5)) | MBC/MIC (clinical strain 58 (Table S5)) | MBC/MIC (clinical strain 59 (Table S5)) | MBC/MIC (clinical strain 60 (Table S5)) | MBC/MIC (clinical strain 61 (Table S5)) | MBC/MIC (clinical strain 62 (Table S5)) | MBC/MIC (clinical strain 63 (Table S5)) | MBC/MIC (clinical strain 64 (Table S5)) | MBC/MIC (clinical strain 65 (Table S5)) | MBC/MIC (clinical strain 66 (Table S5)) | MBC/MIC (clinical strain 67 (Table S5)) | MBC/MIC (clinical strain 68 (Table S5)) | MBC/MIC (clinical strain 69 (Table S5)) | MBC/MIC (clinical strain 70 (Table S5)) | MBC/MIC (clinical strain 71 (Table S5)) | MBC/MIC (clinical strain 72 (Table S5)) | MBC/MIC (clinical strain 73 (Table S5)) | MBC/MIC (clinical strain 74 (Table S5)) | MBC/MIC (clinical strain 75 (Table S5)) | MBC/MIC (clinical strain 76 (Table S5)) | MBC/MIC (clinical strain 77 (Table S5)) | MBC/MIC (clinical strain 78 (Table S5)) | MBC/MIC (clinical strain 79 (Table S5)) | MBC/MIC (clinical strain 80 (Table S5)) | MBC/MIC (clinical strain 81 (Table S5))
